# Source: the supplement of paper PMC10307832
# What was measured:
# Test in all cases: relative viability (nuclei count vs DMSO), 5 days (fraction); higher = more cells survive
# EMC-BAC-2 = test system: EMC-BAC-2
# In short: (§1)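 Relative viability is defined as nuclei in treated wells over nuclei in vehicle wells. Duplicate plates were run and medians reported. Lung cancer cell lines in 1536-well plates were dosed by pin tool one day after seeding, with one drug or with a fixed anchor-drug dose plus five library-drug doses (not always all listed) in √10 steps, and nuclei were counted after 5 days.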
# HCC-366 = test system: HCC-366
# In short: as §1
# HCC-78 = test system: HCC-78
# In short: as §1
# LCLC-97TM1 = test system: LCLC-97TM1
# In short: as §1
# NCI-H1395 = test system: NCI-H1395
# In short: as §1
# NCI-H1648 = test system: NCI-H1648
# In short: as §1
# NCI-H1703 = test system: NCI-H1703
# In short: as §1
# A549 = test system: A549
# In short: as §1
# IA-LM = test system: IA-LM
# In short: as §1
Compound,relative viability (EMC-BAC-2; first compound 0.2 µM),relative viability (EMC-BAC-2; first compound 0.6325 µM),relative viability (EMC-BAC-2; first compound 2 µM),relative viability (EMC-BAC-2; first compound 6.325 µM),relative viability (EMC-BAC-2; first compound 20 µM),relative viability (HCC-366; first compound 0.2 µM),relative viability (HCC-366; first compound 2 µM),relative viability (HCC-366; first compound 6.325 µM),relative viability (HCC-366; first compound 20 µM),relative viability (HCC-78; first compound 0.2 µM),relative viability (HCC-78; first compound 2 µM),relative viability (HCC-78; first compound 6.325 µM),relative viability (HCC-78; first compound 20 µM),relative viability (LCLC-97TM1; first compound 0.2 µM),relative viability (LCLC-97TM1; first compound 0.6325 µM),relative viability (LCLC-97TM1; first compound 2 µM),relative viability (LCLC-97TM1; first compound 6.325 µM),relative viability (LCLC-97TM1; first compound 20 µM),relative viability (NCI-H1395; first compound 0.2 µM),relative viability (NCI-H1395; first compound 0.6325 µM),further results
Cc1csc(=NC2CCCCC2)n1/N=C/c1ccc(O)c(O)c1O [MIM1] + NC(=O)Nc1cc(-c2cccc(F)c2)sc1C(=O)N[C@H]1CCCNC1 [AZD7762] (partner 0.2 µM),1.12,0.776,1.09,0.999,0.314,0.318,0.181,0.093,0.0374,0.548,0.611,0.507,0.662,0.231,0.243,0.196,0.145,0.0668,0.416,0.409,relative viability (NCI-H1395; first compound 2 µM): 0.338; relative viability (NCI-H1395; first compound 6.325 µM): 0.387; relative viability (NCI-H1395; first compound 20 µM): 0.337; relative viability (NCI-H1648; first compound 0.2 µM): 0.615; relative viability (NCI-H1648; first compound 0.6325 µM): 0.718; relative viability (NCI-H1648; first compound 2 µM): 0.679; relative viability (NCI-H1648; first compound 6.325 µM): 0.677; relative viability (NCI-H1648; first compound 20 µM): 0.436; relative viability (NCI-H1703; first compound 0.2 µM): 0.124; relative viability (NCI-H1703; first compound 0.6325 µM): 0.134; relative viability (NCI-H1703; first compound 2 µM): 0.107; relative viability (NCI-H1703; first compound 6.325 µM): 0.112; relative viability (NCI-H1703; first compound 20 µM): 0.122
Cc1csc(=NC2CCCCC2)n1/N=C/c1ccc(O)c(O)c1O [MIM1] + Nc1ncn([C@H]2C[C@H](O)[C@@H](CO)O2)c(=O)n1 [Decitabine] (partner 2 µM),0.97,0.897,0.8,0.852,0.368,0.295,0.354,0.176,0.0249,0.784,0.728,0.502,0.426,0.245,0.238,0.234,0.214,0.0699,0.708,0.793,relative viability (A549; first compound 0.2 µM): 0.217; relative viability (A549; first compound 0.6325 µM): 0.208; relative viability (A549; first compound 2 µM): 0.353; relative viability (A549; first compound 6.325 µM): 0.272; relative viability (A549; first compound 20 µM): 0.0686; relative viability (NCI-H1395; first compound 2 µM): 0.646; relative viability (NCI-H1395; first compound 6.325 µM): 0.688; relative viability (NCI-H1395; first compound 20 µM): 0.427; relative viability (NCI-H1648; first compound 0.2 µM): 0.523; relative viability (NCI-H1648; first compound 0.6325 µM): 0.376; relative viability (NCI-H1648; first compound 2 µM): 0.486; relative viability (NCI-H1648; first compound 6.325 µM): 0.382; relative viability (NCI-H1648; first compound 20 µM): 0.35
Cc1csc(=NC2CCCCC2)n1/N=C/c1ccc(O)c(O)c1O [MIM1] + O=C(CCCCCCC(=O)Nc1ccccc1)NO [Vorinostat] (partner 1 µM),0.492,0.302,0.404,0.313,0.157,0.33,0.243,0.0699,0.0271,0.452,0.38,0.424,0.438,0.594,0.23,0.719,0.236,0.0643,0.799,0.626,relative viability (IA-LM; first compound 0.2 µM): 0.883; relative viability (IA-LM; first compound 0.6325 µM): 0.935; relative viability (IA-LM; first compound 2 µM): 0.93; relative viability (IA-LM; first compound 6.325 µM): 0.57; relative viability (IA-LM; first compound 20 µM): 0.159; relative viability (NCI-H1395; first compound 2 µM): 0.641; relative viability (NCI-H1395; first compound 6.325 µM): 0.422; relative viability (NCI-H1395; first compound 20 µM): 0.322; relative viability (NCI-H1648; first compound 0.2 µM): 0.431; relative viability (NCI-H1648; first compound 0.6325 µM): 0.396; relative viability (NCI-H1648; first compound 2 µM): 0.337; relative viability (NCI-H1648; first compound 6.325 µM): 0.404; relative viability (NCI-H1648; first compound 20 µM): 0.206
